Data as given in article PMC5666756, “Fascaplysin Exerts Anti-Cancer Effects through the Downregulation of Survivin and HIF-1α and Inhibition of VEGFR2 and TRKA” (International Journal of Molecular Sciences, 2017).

Tests used:
Format in all cases: biochemical
VEGFR3 = biological target: T1, VEGFR3 (Homo sapiens, UniProt P35916); assay: high-throughput kinase screening assay (IC50, Figure S4)
T1 construct: gene FLT4

[1] = biological target: T2, TRKA (tropomyosin-related kinase A) (Homo sapiens, UniProt P04629); assay: radiometric kinase assay ([γ-33P]ATP), IC50 at several ATP concentrations, Lineweaver-Burk
T2 construct: gene NTRK1; recombinant human cytoplasmic domain (aa 441–796), C-terminal His-tagged

[2] = biological target: T3, VEGFR2 (vascular endothelial growth factor receptor 2) (Homo sapiens, UniProt P35968); assay: as above
T3 construct: gene KDR
Source text: radiometric kinase assay ([γ-33P]ATP), IC50 at several ATP concentrations, Lineweaver-Burk on VEGFR2 (vascular endothelial growth factor receptor 2) | fascaplysin is noncompetitive with respect to ATP against TRKA and VEGFR2

Measured: IC50

T1 sequence (P35916 25-1363): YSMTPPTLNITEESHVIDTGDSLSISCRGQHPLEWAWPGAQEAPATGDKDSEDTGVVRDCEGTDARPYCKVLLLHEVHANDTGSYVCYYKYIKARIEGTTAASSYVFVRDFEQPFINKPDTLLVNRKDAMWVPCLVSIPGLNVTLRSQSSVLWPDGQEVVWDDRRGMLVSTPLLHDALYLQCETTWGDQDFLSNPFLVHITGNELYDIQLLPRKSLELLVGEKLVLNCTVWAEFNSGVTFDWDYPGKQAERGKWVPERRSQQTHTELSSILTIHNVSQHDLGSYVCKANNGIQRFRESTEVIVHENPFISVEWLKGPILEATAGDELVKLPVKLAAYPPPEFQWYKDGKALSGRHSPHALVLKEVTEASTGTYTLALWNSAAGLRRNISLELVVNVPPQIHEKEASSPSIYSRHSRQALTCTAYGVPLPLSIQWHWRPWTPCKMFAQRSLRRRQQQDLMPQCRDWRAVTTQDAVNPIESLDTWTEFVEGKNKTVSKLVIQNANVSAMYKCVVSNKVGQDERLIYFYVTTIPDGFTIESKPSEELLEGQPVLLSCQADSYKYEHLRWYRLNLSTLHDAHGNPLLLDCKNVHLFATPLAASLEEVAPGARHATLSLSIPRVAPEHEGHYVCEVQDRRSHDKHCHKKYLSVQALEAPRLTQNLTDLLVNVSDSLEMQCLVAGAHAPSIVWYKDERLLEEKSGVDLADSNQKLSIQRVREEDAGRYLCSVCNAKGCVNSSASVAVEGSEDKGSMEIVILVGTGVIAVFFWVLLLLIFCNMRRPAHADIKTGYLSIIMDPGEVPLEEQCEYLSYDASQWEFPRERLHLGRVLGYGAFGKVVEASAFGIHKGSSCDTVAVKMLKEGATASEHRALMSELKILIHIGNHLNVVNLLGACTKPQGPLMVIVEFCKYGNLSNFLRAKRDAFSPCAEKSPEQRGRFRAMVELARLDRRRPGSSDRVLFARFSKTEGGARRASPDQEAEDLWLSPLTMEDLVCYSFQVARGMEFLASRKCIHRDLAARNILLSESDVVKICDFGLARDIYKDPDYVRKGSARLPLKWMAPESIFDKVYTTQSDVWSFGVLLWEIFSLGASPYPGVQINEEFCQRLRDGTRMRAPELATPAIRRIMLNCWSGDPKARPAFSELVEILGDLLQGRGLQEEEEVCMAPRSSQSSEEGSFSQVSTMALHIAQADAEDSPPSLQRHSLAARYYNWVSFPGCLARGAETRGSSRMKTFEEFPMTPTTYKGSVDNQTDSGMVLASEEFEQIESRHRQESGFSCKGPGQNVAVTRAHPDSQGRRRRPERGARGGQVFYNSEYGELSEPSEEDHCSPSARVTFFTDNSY
T2 sequence (P04629 441-796): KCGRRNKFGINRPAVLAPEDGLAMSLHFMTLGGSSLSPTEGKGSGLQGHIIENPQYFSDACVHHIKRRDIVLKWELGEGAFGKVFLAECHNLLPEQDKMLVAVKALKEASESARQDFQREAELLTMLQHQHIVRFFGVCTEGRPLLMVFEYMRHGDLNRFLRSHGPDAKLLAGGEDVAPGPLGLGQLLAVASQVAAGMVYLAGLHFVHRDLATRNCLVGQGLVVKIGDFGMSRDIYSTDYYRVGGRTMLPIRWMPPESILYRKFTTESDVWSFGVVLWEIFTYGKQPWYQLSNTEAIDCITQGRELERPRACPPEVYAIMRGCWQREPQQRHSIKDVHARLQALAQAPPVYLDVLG
T3 sequence (P35968 789-1356): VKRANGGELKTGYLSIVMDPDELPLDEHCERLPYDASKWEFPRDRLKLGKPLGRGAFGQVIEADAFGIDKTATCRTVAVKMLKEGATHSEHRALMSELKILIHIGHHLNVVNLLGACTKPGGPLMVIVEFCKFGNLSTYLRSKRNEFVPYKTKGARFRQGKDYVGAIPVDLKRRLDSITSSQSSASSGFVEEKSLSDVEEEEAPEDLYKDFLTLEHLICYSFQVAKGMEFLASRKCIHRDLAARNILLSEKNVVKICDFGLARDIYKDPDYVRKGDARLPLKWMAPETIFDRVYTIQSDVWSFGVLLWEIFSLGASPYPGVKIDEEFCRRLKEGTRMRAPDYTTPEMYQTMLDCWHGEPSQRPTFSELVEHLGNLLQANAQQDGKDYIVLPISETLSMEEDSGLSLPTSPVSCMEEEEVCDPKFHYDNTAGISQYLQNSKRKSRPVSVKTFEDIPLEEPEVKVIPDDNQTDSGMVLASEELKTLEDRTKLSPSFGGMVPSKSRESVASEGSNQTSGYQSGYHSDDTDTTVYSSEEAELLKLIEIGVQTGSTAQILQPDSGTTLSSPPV

O=C1c2ccccc2-[n+]2ccc3c([nH]c4ccccc43)c21 [Fascaplysin]
2000 to 3000 nM: VEGFR3 | [1] | [2]
